{
  "source": "paper PMC10819767",
  "about": "“An ADAM10 Exosite Inhibitor Is Efficacious in an In Vivo Collagen-Induced Arthritis Model” (Pharmaceuticals, 2024)",
  "key": {"[1]": {"system": "articular joints affected by RA", "test": "Histopathology (H & E) of arthritic joint, CIA mice", "format": "in vivo, C57 BL/6 mice", "protocol": "(§1) The sample size for therapeutic evaluation was calculated using power analysis based on experimental data from similar studies. In a two-sided test and setting the α value at 0.05 and desired power at 0.95, the sample size turned out to be 5 per group. We also expected deaths during the experiments; therefore, we used the formula Nt = N/1-q, where Nt is the number of mice initially used, N is the number required at the end of the study, and q is the proportion of attrition, which is generally 10%. Thus, at the end of the study period, we expected to have data from at least […] per group, which is enough to attain statistical significance if it exists. Data were analyzed using a one-way ANOVA followed by Dunnett’s test compared with the vehicle control. At the end of the study, the mice were anesthetized and sacrificed using CO2 euthanasia. The hind paws of the mice were subjected to a histopathological examination, and the serum was analyzed for CRP, TNF-α, IL-6, and IL-10, as described in the below sections. Histology. Limbs from euthanized animals were preserved in buffered formalin, decalcified, embedded, sectioned, and stained with hematoxylin and eosin (H & E). Microscopic images were acquired using the Lx 400 microscope (Labomed, Fremont, CA, USA)."}, "IL-10": {"system": "IL-10", "test": "RA serum marker ELISA, IL-10, CIA mice", "format": "in vivo, C57 BL/6 mice", "protocol": "as §1, with “sections.” for “sections. Histology. Limbs from euthanized animals were preserved in buffered formalin, decalcified, embedded, sectioned, and stained with hematoxylin and eosin (H & E). Microscopic images were acquired using the Lx 400 microscope (Labomed, Fremont, CA, USA).”\nRA serum marker analysis. Blood was collected from the tail vein, and 100 µL was used for the assays. All assays were conducted using the manufacturer’s instructions for the respective assay kits. The following assay kits were purchased: Mouse TNF-α GENLISA™ ELISA (Krishgen BioSystems cat#KB2145, Mumbai, India), Mouse IL-10 GENLISA™ ELISA (Krishgen BioSystems cat#KB2072), Mouse hsC-Reactive Protein, hs-CRP GENLISA™ ELISA (Krishgen BioSystems cat#KLM0318), Mouse IL-6 GENLISA™ ELISA (Krishgen BioSystems cat#KB2068)."}, "[2]": {"system": "collagen-induced arthritis (CIA) model", "test": "CIA mouse model: clinical arthritis score and paw swelling", "format": "in vivo, C57 BL/6 mice", "conditions": "for disease score: scale 0–4", "protocol": "In vivo efficacy in the CIA mouse model. All animal studies were conducted in accordance with NSU IACUC guidelines. Study protocol #2021.04.DM5 was approved by NSU IACUC before the commencement of the studies. CID 3117694 and indomethacin were ground with a small amount of the dispersing agent (0.5% HPMC (3 cP)–0.5% Tween 80) using a mortar and a pestle and mixed repeatedly to form a smooth paste. The paste was moved to a graduated cylinder and filled up to the required volume with the dispersing agent to form a suspension, as described elsewhere. The test compound (10, 30, and 50 mg/kg) and indomethacin (2.5 mg/kg) were administered with a mouse gavage needle (gauge no: 18, BD, catalog number: 653902) through the oral route as a suspension with a 5 mL/kg dose volume (from day 0 to day 28). In this study, 6–8-week-old C57 BL/6 mice from Charles River (male and female) were used. Animals were randomly assigned to one of the following six groups: (1) normal (non-RA control), (2) RA control untreated, (3) RA control treated with 2.5 mg/kg/day indomethacin, and 3 test groups (CID 3117694 (10 mg/kg/day, 30 mg/kg/day, and 50 mg/kg/day)) to provide an estimate for the lead compound’s efficacy range. Each group had three males and three females assigned to the control for gender-based differences. Arthritis was induced in the right paws of the mice under anaesthesia. The left paw of the mice was used as a control. A total of 10 µL collagen from bovine (type II collagen) nasal septum emulsion (2 mg/mL) was injected into the right knee joint with a glass Hamilton syringe and 25 G needles for intraarticular (i.a.) injection, followed by a total of 100 µL Complete Freund’s adjuvant (CFA) emulsion was injected at the back of mice using a syringe with 25 G needles subcutaneously (s.c.). On day 14 after the first injection, the mice were injected, i.e., with 10 µL of collagen from the bovine nasal septum ([…]) and s.c. with a 100 µL CFA emulsion for a boost injection. Arthritis progression was monitored using a clinical arthritis scoring system (0–4), and paw swelling was measured with the help of a plethysmograph on days 0, 14, 21, and 28 after the induction of arthritis. […] After the administration of a primary dose of collagen from the bovine nasal septum, CFA scoring was assessed. Measurements were taken on days 0, 14, 21, and 28 after the induction of arthritis in induced paws (right paw) and non-arthritis paws (left paw). CID 3117694 (10 mg/kg/day, 30 mg/kg/day, and 50 mg/kg/day) and pharmacological control (indomethacin 2.5 mg/kg/day) treatment were given every day for 28 days beginning from day 1 via oral gavage in hydroxy-propyl-methyl cellulose (HPMC) suspension."}, "DNA polymerase β": {"molecular_target": "DNA polymerase β", "design": "method as in PubChem AID 485314", "conditions": "ref PubChem AID 485314; cited from earlier work"}, "T-cell receptors": {"system": "T-cell receptors", "design": "method as in PubChem bioassay 504894", "conditions": "ref PubChem bioassay 504894; cited from earlier work"}, "OPRD1": {"system": "OPRD1", "design": "method as in PMID 34817776", "conditions": "cited from earlier work"}, "adrenergic (ADRB2)": {"system": "adrenergic (ADRB2)", "design": "method as in PMID 34817776", "conditions": "cited from earlier work"}, "OPRM1": {"system": "OPRM1", "design": "method as in PMID 34817776", "conditions": "cited from earlier work"}},
  "note": "Entries after “also recorded” stand apart in the source; their conditions may differ.",
  "data": [
    {"smiles": "COc1cccc(C(=O)NNC(=O)C(=O)Nc2ccc(C)c(Cl)c2)c1", "note": "[CID 3117694]", "values": [
      {"measurement": "histopathological findings (in words)", "setting": "[1]; 10 mg/kg/day", "result": "did not have a pronounced effect on RA markers"},
      {"measurement": "histopathological findings (in words)", "setting": "[1]; 30 mg/kg/day", "result": "reduced erosion but not the rest of the symptoms"},
      {"measurement": "histopathological findings (in words)", "setting": "[1]; 50 mg/kg/day", "result": "significant reduction in RA hallmarks in most samples; also recorded: healthy bone and cartilage similar to the healthy controls"},
      {"measurement": "IL-10 blood level vs healthy control", "setting": "IL-10; CID 3117694 50 mg/kg/day, indomethacin 2.5 mg/kg", "result": "decreased the markers to the level of the healthy control"},
      {"measurement": "concentration of IL-10 in the blood of arthritic mice", "setting": "IL-10; all tested doses (10, 30, 50 mg/kg), vs vehicle control", "result": "lowers"},
      {"measurement": "paw swelling vs normal control (in words)", "setting": "[2]; 50 mg/kg/day", "result": "decreased the swelling to the level of the normal control"},
      {"measurement": "disease score", "setting": "[2]; day 21, 10 mg/kg oral", "result": 4},
      {"measurement": "disease score", "setting": "[2]; day 21, 30 mg/kg oral", "result": "three"},
      {"measurement": "disease score", "setting": "[2]; day 21, 50 mg/kg oral", "result": 2},
      {"measurement": "disease score", "setting": "[2]; day 28, 10 mg/kg oral", "result": 2},
      {"measurement": "disease score", "setting": "[2]; day 28, 30 mg/kg oral", "result": 2},
      {"measurement": "disease score", "setting": "[2]; day 28, 50 mg/kg oral", "result": 1},
      {"measurement": "IC50", "setting": "DNA polymerase β", "result": 79, "unit": "µM"},
      {"measurement": "activity in assay for activators of T-cell receptors", "setting": "T-cell receptors", "result": "inactivity"},
      {"measurement": "activity against OPRD1", "setting": "OPRD1", "result": "inactive"},
      {"measurement": "activity against ADRB2", "setting": "adrenergic (ADRB2)", "result": "inactive"},
      {"measurement": "activity against OPRM1", "setting": "OPRM1", "result": "inactive"}
    ]}
  ]
}
